Source: paper PMC12024912, “Druggability Studies of Benzene Sulfonamide Substituted Diarylamide (E3) as a Novel Diuretic” (Biomedicines, 2025)

Tests used:
hERG K+ channel = target: T1, hERG K+ channel (Homo sapiens, UniProt Q12809); assay: hERG K+ channel tail current, QPatch, CHO-hERG cells; assay type: cell-based
T1 construct: expressed in transfected cells; host or cells: CHO-hERG cells
Procedure: CHO-hERG cells were maintained in F12 medium (Gibco, Thermo Fisher Scientific, Waltham, MA, USA) containing 10% FBS and 0.5 mg/mL Geneticin (Invitrogen, Thermo Fisher Scientific, Waltham, MA, USA) under standard culture conditions (37 °C, 5% CO2). Cells were seeded 2 days prior to reaching 70% confluency, then washed with PBS and detached using 5 mL Detachin (Genlantis, San Diego, CA, USA) at 37 °C for 2~3 min. Cell suspensions (2 × 10^6 cells/mL in F12) were prepared and equilibrated for 20 min in the QStir station of the QPatch-16 system (Sophion Bioscience, Copenhagen, Denmark) before electrophysiological recordings.
hERG channel tail currents were assessed using the QPatch automated platform. Recording solutions contained (mM): Internal: KCl 120, CaCl2 5.374, MgCl2 1.75, KOH 31.25, EGTA 10, HEPES 10, Na2ATP 4 (pH 7.2); External: NaCl 145, KCl 4, MgCl2 1, CaCl2 2, HEPES 10, glucose 10 (pH 7.4)
Cells were voltage-clamped at −80 mV with series resistance monitored during −100 mV hyperpolarization. The stimulation protocol included: (1) 200 ms baseline at −50 mV; (2) 2s depolarization to +20 mV; and (3) tail current recording at −50 mV. Signals were acquired at 2 kHz through the integrated Bessel filter. Concentration-response relationships were established by sequential compound applications bracketed with saline controls for normalization.

UT-B [1] = target: T2, UT-B (Rattus norvegicus, UniProt P97689); assay: Stopped-flow measurement of erythrocyte urea permeability; assay type: cell-based
T2 construct: endogenous in cells; host or cells: erythrocytes from male SD rats
T2 sequence (P97689 1-384): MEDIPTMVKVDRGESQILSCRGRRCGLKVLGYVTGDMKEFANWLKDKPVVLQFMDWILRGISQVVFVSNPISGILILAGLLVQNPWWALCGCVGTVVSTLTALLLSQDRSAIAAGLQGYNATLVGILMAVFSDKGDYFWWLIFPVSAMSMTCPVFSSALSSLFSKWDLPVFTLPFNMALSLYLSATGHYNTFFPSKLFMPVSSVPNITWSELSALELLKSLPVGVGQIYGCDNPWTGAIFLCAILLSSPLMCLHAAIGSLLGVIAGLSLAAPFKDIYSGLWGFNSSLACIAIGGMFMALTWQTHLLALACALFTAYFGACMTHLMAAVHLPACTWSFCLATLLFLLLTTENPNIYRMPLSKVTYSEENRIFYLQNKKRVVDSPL
Procedure: Erythrocyte urea permeabilities were assessed via stopped-flow light scattering (SX20, Applied Photophysics, Leatherhead, UK) following established protocols. Erythrocyte was acquired from rat blood and suspended in isotonic PBS (hematocrit 0.5%). Then, the erythrocyte was incubated with test compounds for 5 min and quickly mixed with 500 mmol/L urea dissolved in PBS. Following an initial osmotic shrinking phase, the kinetics of cell volume increase due to urea influx were measured by monitoring the time course of 90° scattered light intensity at 530 nm. […] Keep samples and PBS at 4 °C to reduce the influence of free diffusion. To assay reversibility, compounds were added to erythrocytes for 5 min and then washed with PBS 3 times by 2000 r/min centrifugation before stopped-flow measurements. To determine inhibition on urea efflux, erythrocytes were incubated with 500 mmol/L urea in PBS for 2 h, then mixed with PBS without urea.

[2] = Liver homogenate metabolic stability, rat; assay type: in vitro ADME
Procedure: Plasma from mice, rats, rabbits, and humans was obtained from blood after centrifugation at 3000 r/min for 10 min. Simulated gastric fluid (SGF, pH = 1, containing pepsin) and simulated intestinal fluid (SIF, pH = 6.8, containing trypsin) were configured previously in the experiments. SD rats and mice were collected, and after removing the mucus layer from the small intestine and colon, 20 times the volume of liquid bacterial culture medium was added. An intestinal microbiota suspension was obtained after anaerobic cultivation on a shaking table at 37 °C for 12 h. In the aforementioned systems, E3 was added at a final concentration of 1 μmol/L at 37 °C for different incubation times (0, 10, 20, 30, 60, 120, and 240 min). In liver metabolic stability assays, E3 was incubated with liver microsomes or liver homogenate from mice or rats for 60 min at 37 °C. The stop solution, 5 ng/mL tolbutamide (internal standard, IS) in acetonitrile, was added to stop the metabolic process. Post-centrifugation (18,000× g, 10 min, 4 °C), supernatants were subjected to liquid chromatography–tandem mass spectrometry (LC–MS/MS). Analyte-to-IS peak area ratios quantified residual percentages via Equation (2):Remaining% = (E3peak area/ISpeak area at different time)/(E3peak area/ISpeak area at 0 min) × 100%.(2)

UT-B [3] = target: T3, UT-B (Homo sapiens, UniProt Q13336); assay: Erythrocyte lysis assay for UT-B inhibition, human erythrocytes; assay type: cell-based
T3 construct: endogenous in cells; host or cells: erythrocytes from healthy adult male volunteers
T3 sequence (Q13336 1-389): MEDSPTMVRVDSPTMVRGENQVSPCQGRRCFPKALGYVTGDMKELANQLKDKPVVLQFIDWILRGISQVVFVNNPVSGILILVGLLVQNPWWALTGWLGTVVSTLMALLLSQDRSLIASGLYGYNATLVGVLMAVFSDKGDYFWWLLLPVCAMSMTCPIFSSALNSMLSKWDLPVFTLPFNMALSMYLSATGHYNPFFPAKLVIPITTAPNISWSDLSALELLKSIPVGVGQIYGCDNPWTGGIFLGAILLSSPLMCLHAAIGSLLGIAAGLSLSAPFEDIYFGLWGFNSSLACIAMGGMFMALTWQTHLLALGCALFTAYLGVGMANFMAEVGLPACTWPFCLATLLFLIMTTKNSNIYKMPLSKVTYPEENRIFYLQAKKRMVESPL
Procedure: The erythrocyte lysis assay was modified from a method described previously. Erythrocytes obtained from veins were diluted to a hematocrit value of 2% in hyperosmolar PBS containing 1.25 mol/L urea and 5 mmol/L glucose and incubated at r.t. for 2 h. Then, 99 μL erythrocyte suspension from a reservoir was added to each well of a 96-well round-bottom microplate, then 1 μL of the testing compound (500, 125, 31.25, 7.81, 1.95, 0.488, 0.122, 0.031, 0.0076 μmol/L dissolved in DMSO) was added to erythrocyte suspension and shook it up with microoscillator for 1 min. Following 5 min incubation, 20 μL erythrocyte suspension was transferred into 96-well black microplates preloaded with 180 μL isotonic PBS (10 mM, urea-free). Erythrocyte lysis was monitored at 710 nm optical density (OD710) for 6 min, with lysis rates calculated using control values from the same plate as Equation (1):Lysis (%) = 100 × (Aneg − Atest)/(Aneg − Apos)(1) where Atest is the absorbance value from the test well, Aneg is from a negative no-lysis control well, and Apos is from a positive full-lysis control.

T1 sequence (Q12809 whole entry): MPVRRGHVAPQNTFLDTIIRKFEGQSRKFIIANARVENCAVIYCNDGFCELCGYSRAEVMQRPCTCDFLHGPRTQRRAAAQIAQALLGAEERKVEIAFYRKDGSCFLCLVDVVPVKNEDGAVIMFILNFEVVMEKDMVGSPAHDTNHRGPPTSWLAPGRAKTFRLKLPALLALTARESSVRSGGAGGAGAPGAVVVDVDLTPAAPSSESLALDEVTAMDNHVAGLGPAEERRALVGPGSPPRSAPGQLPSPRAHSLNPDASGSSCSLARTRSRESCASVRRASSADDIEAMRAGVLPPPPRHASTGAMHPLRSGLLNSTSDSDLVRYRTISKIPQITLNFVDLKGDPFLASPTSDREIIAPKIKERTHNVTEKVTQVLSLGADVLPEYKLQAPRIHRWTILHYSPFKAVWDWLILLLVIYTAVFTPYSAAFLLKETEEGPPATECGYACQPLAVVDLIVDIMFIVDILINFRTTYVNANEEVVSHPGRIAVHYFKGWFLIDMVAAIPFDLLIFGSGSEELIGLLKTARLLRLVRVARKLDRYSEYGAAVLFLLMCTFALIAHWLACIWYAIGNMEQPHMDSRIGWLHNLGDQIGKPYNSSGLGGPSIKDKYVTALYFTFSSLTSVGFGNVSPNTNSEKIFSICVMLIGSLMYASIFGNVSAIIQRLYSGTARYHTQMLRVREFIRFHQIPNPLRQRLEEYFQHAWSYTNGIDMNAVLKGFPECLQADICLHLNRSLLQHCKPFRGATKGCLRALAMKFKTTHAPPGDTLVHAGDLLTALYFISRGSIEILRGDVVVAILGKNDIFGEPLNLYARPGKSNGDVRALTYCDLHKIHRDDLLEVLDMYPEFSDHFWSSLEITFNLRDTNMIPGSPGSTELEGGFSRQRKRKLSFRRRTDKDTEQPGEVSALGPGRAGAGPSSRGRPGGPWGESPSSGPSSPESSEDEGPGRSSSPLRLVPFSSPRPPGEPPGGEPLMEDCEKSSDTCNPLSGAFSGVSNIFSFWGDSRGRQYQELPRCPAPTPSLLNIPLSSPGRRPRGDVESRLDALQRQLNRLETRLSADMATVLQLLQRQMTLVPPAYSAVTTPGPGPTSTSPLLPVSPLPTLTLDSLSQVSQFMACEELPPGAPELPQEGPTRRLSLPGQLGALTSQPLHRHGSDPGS

In the case of `CC(=O)c1ccc(C(=O)Nc2cccc(NS(=O)(=O)c3ccccc3)c2)o1` [Compound E3, 5-acetyl-N-(3-(phenylsulfonamido)phenyl)furan-2-carboxamide], the IC50 (hERG K+ channel) is reported as over 33300 nM, the “reversibility of UT-B inhibition” value (UT-B [1]; 1 μM followed by washout with PBS) is reported as “reversible” and the “UT-B-mediated urea influx into erythrocytes” value (UT-B [1]; stopped-flow light scattering, rat erythrocytes) is reported as “dose-dependently inhibit”. The UT-B-mediated urea efflux (UT-B [1]; stopped-flow, erythrocytes preloaded with high urea, mixed with isotonic PBS) was “inhibited UT-B-mediated urea efflux in a dose-dependent manner”, the “CLhep, rat liver homogenate” value ([2]; calculated with 45 mg/g liver, 40 g liver/kg) was 46.4 mL/min/kg and the remaining at 1 h ([2]; rat, liver homogenate, 60 min incubation, 37 °C, n=3) was 69%. The “maximum inhibition rate, human cells” value (UT-B [3]; erythrocyte lysis assay) was “approximately 100%” and the IC50 (UT-B [3]; red blood cell lysis assay, read-out: IC50 for UT-B-promoted urea transport, humans) was 25 nM.
